Data from US20240139125A1 (INDUSTRIAL COOPERATION FOUNDATION JEONBUK NATIONAL …, priority 2020, published 2024).
Entries after “also recorded” stand apart in the source; their conditions may differ.

What was measured:
HT1080 = assay: Cell proliferation/viability with BIA, IC50 after 3 days; type: cell-based; settings: Homo sapiens, HT-1080, 72 h; HT1080, treatment for 3 days
[1] = system: HT1080, MCF7, MDA-MB-231 and SKBR3 cell lines; assay: Cell proliferation and viability of cell line panel with BIA; type: cell-based; settings: 5 μM BIA

Which results are given for `Nc1ccccc1C(=O)/C=C/c1cccc([N+](=O)[O-])c1` [BIA, 2E-1-2-Aminophenyl-3-3-nitrophenyl-2-propen-1-one]?
IC50 (HT1080): 1700 ± 100 nM; proliferation and cell viability of all cell lines [1]: inhibited; also recorded: suppressed
